Key:
[1] = target: T1, A disintegrin and metalloproteinase with thrombospondin motifs 5 (Homo sapiens, UniProt Q9UNA0); assay: Inhibition of ADAMTS5 by FRET assay
T1 sequence (Q9UNA0 whole entry): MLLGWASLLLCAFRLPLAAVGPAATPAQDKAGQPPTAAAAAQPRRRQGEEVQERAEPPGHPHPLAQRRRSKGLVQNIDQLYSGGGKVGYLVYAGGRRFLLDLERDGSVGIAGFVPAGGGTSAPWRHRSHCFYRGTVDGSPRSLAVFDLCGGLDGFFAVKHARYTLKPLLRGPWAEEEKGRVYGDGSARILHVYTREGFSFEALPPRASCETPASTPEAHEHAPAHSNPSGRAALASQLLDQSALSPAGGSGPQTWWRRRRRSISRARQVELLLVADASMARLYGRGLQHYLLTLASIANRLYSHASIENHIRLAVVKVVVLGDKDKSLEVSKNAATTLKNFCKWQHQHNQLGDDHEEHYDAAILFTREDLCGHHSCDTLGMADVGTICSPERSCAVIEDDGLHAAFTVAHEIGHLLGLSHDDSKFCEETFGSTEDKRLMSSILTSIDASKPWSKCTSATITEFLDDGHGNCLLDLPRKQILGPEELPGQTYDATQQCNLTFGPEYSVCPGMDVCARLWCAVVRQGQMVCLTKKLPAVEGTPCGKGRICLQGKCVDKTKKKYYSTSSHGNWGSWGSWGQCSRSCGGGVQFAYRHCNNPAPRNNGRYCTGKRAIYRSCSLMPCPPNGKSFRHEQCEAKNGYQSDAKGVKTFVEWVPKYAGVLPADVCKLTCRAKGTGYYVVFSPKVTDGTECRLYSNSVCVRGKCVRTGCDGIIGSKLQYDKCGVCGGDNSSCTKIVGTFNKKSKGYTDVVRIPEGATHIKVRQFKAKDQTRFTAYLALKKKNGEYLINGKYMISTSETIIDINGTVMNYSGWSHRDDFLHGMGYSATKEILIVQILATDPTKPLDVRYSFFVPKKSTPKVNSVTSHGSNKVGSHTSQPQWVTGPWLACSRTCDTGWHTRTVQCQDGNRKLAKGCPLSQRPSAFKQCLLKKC

[2] = target: T2, A disintegrin and metalloproteinase with thrombospondin motifs 4 (Homo sapiens, UniProt O75173); assay: Inhibition of ADAMTS4
T2 sequence (O75173 whole entry): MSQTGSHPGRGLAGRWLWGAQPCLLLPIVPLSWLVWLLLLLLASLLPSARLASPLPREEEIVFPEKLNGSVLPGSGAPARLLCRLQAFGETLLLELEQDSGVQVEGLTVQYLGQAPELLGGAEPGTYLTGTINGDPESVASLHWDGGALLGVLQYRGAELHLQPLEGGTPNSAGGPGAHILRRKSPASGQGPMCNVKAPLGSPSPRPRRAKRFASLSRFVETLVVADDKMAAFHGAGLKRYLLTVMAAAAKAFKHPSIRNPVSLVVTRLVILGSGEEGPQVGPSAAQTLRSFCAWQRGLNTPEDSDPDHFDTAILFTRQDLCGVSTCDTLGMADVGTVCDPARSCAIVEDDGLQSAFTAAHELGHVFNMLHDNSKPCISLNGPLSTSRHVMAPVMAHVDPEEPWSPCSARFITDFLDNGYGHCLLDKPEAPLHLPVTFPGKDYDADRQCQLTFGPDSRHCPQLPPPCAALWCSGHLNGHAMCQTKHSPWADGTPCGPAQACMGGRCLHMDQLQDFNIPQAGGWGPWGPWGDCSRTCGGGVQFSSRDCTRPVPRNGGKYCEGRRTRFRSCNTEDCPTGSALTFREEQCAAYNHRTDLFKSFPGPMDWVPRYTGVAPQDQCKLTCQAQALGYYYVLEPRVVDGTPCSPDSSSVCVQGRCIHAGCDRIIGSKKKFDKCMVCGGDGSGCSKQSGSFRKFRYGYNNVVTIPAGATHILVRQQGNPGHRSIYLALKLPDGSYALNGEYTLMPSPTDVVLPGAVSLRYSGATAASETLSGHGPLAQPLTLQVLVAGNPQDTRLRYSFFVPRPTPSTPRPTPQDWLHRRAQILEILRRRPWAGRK

[3] = target: Collagenase 3 (Homo sapiens, UniProt P45452); assay: Inhibition of MMP13
[4] = target: Macrophage metalloelastase (Homo sapiens, UniProt P39900); assay: Inhibition of MMP12
Sequence of Macrophage metalloelastase (P39900 whole entry): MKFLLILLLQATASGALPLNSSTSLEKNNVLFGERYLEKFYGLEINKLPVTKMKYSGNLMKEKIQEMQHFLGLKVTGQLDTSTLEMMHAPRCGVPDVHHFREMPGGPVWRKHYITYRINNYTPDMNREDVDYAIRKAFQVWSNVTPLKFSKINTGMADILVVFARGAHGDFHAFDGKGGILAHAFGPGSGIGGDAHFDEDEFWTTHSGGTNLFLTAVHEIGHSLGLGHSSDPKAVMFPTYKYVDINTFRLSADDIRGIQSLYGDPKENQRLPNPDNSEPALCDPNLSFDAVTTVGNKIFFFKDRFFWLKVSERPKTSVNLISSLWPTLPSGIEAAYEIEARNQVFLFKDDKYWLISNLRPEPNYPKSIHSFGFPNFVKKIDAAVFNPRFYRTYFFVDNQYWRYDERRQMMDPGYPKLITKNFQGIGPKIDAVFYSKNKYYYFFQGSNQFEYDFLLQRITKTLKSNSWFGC

Compound | IC50 [1] [µM] | IC50 [2] [µM] | IC50 [3] [µM] | IC50 [4] [µM]
Cc1ccc(C2=NNC3(S2)C(=O)Nc2ccccc23)cc1 (stereo unspecified) | 3.7 |  |  | 
COc1ccc(C2=NNC3(S2)C(=O)N(C)c2ccccc23)cc1 (stereo unspecified) | 7.5 |  |  | 
COc1ccc(C2=NNC3(S2)C(=O)Nc2ccc(C)cc23)cc1 (stereo unspecified) | 2.5 |  |  | 
CCCc1cc2c(cc1C)C1(NN=C(c3ccc(OC)cc3)S1)C(=O)N2Cc1ccccc1 (stereo unspecified) | 0.95 |  |  | 
CCCc1ccc2c(c1)NC(=O)C21NN=C(c2ccc(OC)cc2)S1 (stereo unspecified) |  | > 22 | > 22 | 1.7
COc1ccc(C2=NNC3(S2)C(=O)N(Cc2ccccc2)c2ccccc23)cc1 (stereo unspecified) | 0.87 | > 22 | > 100 | 5.6
COc1ccc(C2=NNC3(S2)C(=O)N(Cc2ccccc2)c2ccc(C)cc23)cc1 (stereo unspecified) |  |  | > 100 | > 22
O=C1Nc2ccccc2C12NN=C(c1ccccc1)S2 (stereo unspecified) | 24.2 |  |  | 
CCc1ccc2c(c1)C1(NN=C(c3ccccc3)S1)C(=O)N2 (stereo unspecified) | 9.6 |  |  | 
COc1ccc(C2=NNC3(S2)C(=O)Nc2ccc(Cl)cc23)cc1 (stereo unspecified) | 2 |  |  | 
COc1ccc(C2=NNC3(S2)C(=O)Nc2cc(Cl)ccc23)cc1 (stereo unspecified) | 1.2 |  |  | 
Cc1ccc(C2=NNC3(S2)C(=O)Nc2ccc(C)cc23)cc1 (stereo unspecified) | 3 |  |  | 
Cc1ccc(C2=NNC3(S2)C(=O)N(c2ccccc2C)c2ccc(C)cc23)cc1 (stereo unspecified) | 1.2 |  |  | 
CC(C)N1C(=O)C2(NN=C(c3ccccc3)S2)c2ccccc21 (stereo unspecified) | 3.1 |  |  | 
CCc1ccc2c(c1)C1(NN=C(c3ccc(OC)cc3)S1)C(=O)N2 (stereo unspecified) | 1.4 |  |  | 
Cc1ccc(C2=NNC3(S2)C(=O)N(C)c2ccccc23)cc1 (stereo unspecified) | 4.6 |  |  | 
CCc1ccc2c(c1)C1(NN=C(c3ccc(C)cc3)S1)C(=O)N2 (stereo unspecified) | 1.9 |  |  | 
COc1ccc(C2=NNC3(S2)C(=O)N(c2ccccc2C)c2ccc(C)cc23)cc1 (stereo unspecified) |  | 10.5 | > 100 | > 22
